Results reported in ChEMBL document CHEMBL3758091, “Identification of N-(6-mercaptohexyl)-3-(4-pyridyl)-1H-pyrazole-5-carboxamide and its disulfide prodrug as potent histone deacetylase inhibitors with in vitro and in vivo anti-tumor efficacy” (Eur J Med Chem, 2016).

Experiments:
Mus musculus [1] = assay: Toxicity in athymic nude mouse xenografted with human HCT116 cells assessed as reduction in body weight at 40 mg/kg, ip qd administered for 14 days measured every other day during compound dosing; type: organism-based, HCT-116; conditions: in vivo, 336 h
Mus musculus [2] = assay: Toxicity in athymic nude mouse xenografted with human HCT116 cells assessed as mortality at 40 mg/kg, ip qd administered for 14 days measured every other day during compound dosing; type: organism-based, HCT-116; conditions: in vivo, 336 h
HT-29 = assay: Growth inhibition of human HT-29 cells after 96 hrs by MTT assay; type: functional
Histone deacetylase 1 [3] = target: T1, Histone deacetylase 1 (Homo sapiens, UniProt Q13547); assay: Inhibition of HDAC1 in human HCT116 cells assessed as increase in acetylated histone H3 level after 24 hrs by Western blot analysis; type: cell-based; conditions: HCT-116
T1 sequence (Q13547 whole entry): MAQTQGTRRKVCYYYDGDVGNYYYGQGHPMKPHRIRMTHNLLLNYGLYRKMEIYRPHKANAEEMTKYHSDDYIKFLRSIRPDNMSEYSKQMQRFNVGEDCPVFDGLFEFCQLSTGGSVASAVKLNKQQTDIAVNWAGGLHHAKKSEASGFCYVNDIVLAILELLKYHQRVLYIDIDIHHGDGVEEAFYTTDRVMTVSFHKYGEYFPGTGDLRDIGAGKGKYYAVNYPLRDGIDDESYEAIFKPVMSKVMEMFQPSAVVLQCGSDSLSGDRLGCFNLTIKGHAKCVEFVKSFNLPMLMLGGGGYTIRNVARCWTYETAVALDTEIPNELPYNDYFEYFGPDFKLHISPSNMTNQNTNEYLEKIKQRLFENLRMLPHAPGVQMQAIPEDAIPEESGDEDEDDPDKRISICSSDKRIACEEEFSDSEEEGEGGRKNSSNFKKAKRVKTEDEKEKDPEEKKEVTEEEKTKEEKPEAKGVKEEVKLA

cells [4] = type: functional; conditions: Homo sapiens, PC-3, 96 h
Description: Growth inhibition of human PC3 cells after 96 hrs by MTT assay

HCT-116 = assay: Antitumor activity against human HCT116 cells xenografted in ip dosed athymic nude mouse assessed as tumor growth inhibition qd administered for 14 days measured every other day during compound dosing; type: functional, organism-based
[5] = target: T2, Protein deacetylase HDAC6 (Homo sapiens) (UniProt Q9UBN7); assay: Inhibition of HDAC6 in human HCT116 cells assessed as increase in acetylated tubulin level after 24 hrs by Western blot analysis; type: cell-based; conditions: HCT-116
T2 sequence (whole entry): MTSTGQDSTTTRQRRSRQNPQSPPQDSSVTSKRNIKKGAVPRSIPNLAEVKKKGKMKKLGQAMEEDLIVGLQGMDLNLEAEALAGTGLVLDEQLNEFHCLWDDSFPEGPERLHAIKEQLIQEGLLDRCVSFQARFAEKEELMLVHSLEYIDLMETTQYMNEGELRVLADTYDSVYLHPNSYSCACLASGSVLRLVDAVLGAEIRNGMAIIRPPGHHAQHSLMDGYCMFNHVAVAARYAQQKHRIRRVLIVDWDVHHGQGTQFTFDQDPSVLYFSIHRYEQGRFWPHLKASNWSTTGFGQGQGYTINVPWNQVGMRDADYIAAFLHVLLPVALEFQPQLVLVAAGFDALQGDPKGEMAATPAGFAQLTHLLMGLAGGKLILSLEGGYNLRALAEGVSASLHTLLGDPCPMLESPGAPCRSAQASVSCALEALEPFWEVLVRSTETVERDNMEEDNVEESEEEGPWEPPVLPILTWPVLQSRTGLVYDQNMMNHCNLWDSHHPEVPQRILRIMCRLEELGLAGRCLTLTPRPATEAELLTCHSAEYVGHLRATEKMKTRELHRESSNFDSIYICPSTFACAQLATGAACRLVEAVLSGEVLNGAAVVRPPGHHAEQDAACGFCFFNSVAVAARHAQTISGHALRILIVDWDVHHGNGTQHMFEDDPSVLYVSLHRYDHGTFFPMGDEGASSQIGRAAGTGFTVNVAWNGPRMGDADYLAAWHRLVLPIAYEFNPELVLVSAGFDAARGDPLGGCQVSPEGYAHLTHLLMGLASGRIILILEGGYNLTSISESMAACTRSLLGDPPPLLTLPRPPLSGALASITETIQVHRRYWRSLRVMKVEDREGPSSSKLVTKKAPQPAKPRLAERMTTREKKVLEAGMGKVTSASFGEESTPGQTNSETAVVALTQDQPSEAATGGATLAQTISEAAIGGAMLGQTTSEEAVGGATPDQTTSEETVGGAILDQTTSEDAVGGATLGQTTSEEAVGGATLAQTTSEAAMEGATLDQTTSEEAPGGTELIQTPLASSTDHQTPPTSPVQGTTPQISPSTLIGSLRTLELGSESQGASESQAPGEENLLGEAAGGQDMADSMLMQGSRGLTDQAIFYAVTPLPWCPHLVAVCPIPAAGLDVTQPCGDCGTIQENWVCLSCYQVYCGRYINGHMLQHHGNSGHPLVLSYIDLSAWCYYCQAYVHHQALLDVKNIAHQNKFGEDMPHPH

A549 = assay: cells; type: functional; conditions: Homo sapiens, A549, 96 h
Description: Growth inhibition of human A549 cells after 96 hrs by MTT assay

Mus musculus [6] = assay: Toxicity in athymic nude mouse xenografted with human HCT116 cells assessed as mortality at 40 to 80 mg/kg, ip qd administered for 14 days measured every other day during compound dosing; type: organism-based, HCT-116; conditions: in vivo, 336 h
[7] = Cytotoxicity against HEK293 cells assessed as growth inhibition after 96 hrs by MTT assay; conditions: human
Mus musculus [8] = assay: Toxicity in athymic nude mouse xenografted with human HCT116 cells assessed as reduction in body weight at 40 to 80 mg/kg, ip qd administered for 14 days measured every other day during compound dosing; type: organism-based, HCT-116; conditions: in vivo, 336 h
cells [9] = type: functional; conditions: Homo sapiens, HCT-116, 96 h
Description: Growth inhibition of human HCT116 cells after 96 hrs by MTT assay

[10] = Antitumor activity against human HCT116 cells xenografted in athymic nude mouse assessed as tumor growth inhibition at 40 mg/kg, ip qd administered for 14 days measured every other day during compound dosing; type: functional; conditions: HCT-116, ip, 336 h, read-out: TGI
cells [11] = type: functional; conditions: Homo sapiens, ASPC1, 96 h
Description: Growth inhibition of human Aspc-1 cells after 96 hrs by MTT assay

MCF7 = assay: cells; type: functional; conditions: Homo sapiens, MCF7, 96 h
Description: Growth inhibition of human MCF7 cells after 96 hrs by MTT assay

MDA-MB-231 = assay: cells; type: functional; conditions: Homo sapiens, MDA-MB-231, 96 h
Description: Growth inhibition of human MDA-MB-231 cells after 96 hrs by MTT assay

[12] = Antitumor activity against human HCT116 cells xenografted in athymic nude mouse assessed as tumor growth inhibition at 80 mg/kg, ip qd administered for 14 days measured every other day during compound dosing; type: functional; conditions: HCT-116, ip, 336 h, read-out: TGI
Histone deacetylase 2 = Histone deacetylase 2 (Homo sapiens, UniProt Q92769); assay: Inhibition of recombinant human HDAC2 using Boc-Lys(Ac)-AMC as substrate preincubated for 15 mins followed by substrate addition measured after 60 mins by fluorescence-based assay
Chain of Histone deacetylase 2 (Q92769 whole entry): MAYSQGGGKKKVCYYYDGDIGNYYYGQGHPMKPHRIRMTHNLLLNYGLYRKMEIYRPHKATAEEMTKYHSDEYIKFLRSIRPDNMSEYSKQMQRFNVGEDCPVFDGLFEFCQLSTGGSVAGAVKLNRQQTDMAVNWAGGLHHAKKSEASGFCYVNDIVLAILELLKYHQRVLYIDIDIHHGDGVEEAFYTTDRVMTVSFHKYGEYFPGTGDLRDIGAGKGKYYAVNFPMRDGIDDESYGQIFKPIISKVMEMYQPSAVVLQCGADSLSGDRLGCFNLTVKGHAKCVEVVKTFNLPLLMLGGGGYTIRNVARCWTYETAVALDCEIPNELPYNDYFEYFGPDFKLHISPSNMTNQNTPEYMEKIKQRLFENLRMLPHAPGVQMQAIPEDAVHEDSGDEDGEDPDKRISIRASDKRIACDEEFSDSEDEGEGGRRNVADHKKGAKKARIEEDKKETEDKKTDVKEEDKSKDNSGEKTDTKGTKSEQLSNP

Histone deacetylase 1 [13] = target: T1, Histone deacetylase 1; assay: Inhibition of recombinant human HDAC1 using Boc-Lys(Ac)-AMC as substrate preincubated for 15 mins followed by substrate addition measured after 60 mins by fluorescence-based assay
Histone deacetylase 3 = Histone deacetylase 3 (Homo sapiens, UniProt O15379); assay: Inhibition of recombinant human HDAC3 using Boc-Lys(Ac)-AMC as substrate preincubated for 15 mins followed by substrate addition measured after 60 mins by fluorescence-based assay
Chain of Histone deacetylase 3 (O15379 whole entry): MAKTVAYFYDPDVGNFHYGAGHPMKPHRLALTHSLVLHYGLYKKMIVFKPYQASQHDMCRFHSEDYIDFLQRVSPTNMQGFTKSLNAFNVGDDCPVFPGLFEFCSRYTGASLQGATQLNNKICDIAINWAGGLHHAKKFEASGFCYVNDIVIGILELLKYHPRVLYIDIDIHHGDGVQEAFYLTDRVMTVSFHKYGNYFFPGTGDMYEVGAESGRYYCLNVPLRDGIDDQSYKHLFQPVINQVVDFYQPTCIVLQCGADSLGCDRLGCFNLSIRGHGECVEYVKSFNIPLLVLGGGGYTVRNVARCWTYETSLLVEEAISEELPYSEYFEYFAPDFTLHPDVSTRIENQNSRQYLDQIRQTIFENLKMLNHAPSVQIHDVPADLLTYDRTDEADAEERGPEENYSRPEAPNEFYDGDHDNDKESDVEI

Histone deacetylase 4 = Histone deacetylase 4 (Homo sapiens, UniProt P56524); assay: Inhibition of recombinant human HDAC4 using Boc-Lys(TFA)-AMC as substrate preincubated for 15 mins followed by substrate addition measured after 60 mins by fluorescence-based assay
Chain of Histone deacetylase 4 (P56524 whole entry): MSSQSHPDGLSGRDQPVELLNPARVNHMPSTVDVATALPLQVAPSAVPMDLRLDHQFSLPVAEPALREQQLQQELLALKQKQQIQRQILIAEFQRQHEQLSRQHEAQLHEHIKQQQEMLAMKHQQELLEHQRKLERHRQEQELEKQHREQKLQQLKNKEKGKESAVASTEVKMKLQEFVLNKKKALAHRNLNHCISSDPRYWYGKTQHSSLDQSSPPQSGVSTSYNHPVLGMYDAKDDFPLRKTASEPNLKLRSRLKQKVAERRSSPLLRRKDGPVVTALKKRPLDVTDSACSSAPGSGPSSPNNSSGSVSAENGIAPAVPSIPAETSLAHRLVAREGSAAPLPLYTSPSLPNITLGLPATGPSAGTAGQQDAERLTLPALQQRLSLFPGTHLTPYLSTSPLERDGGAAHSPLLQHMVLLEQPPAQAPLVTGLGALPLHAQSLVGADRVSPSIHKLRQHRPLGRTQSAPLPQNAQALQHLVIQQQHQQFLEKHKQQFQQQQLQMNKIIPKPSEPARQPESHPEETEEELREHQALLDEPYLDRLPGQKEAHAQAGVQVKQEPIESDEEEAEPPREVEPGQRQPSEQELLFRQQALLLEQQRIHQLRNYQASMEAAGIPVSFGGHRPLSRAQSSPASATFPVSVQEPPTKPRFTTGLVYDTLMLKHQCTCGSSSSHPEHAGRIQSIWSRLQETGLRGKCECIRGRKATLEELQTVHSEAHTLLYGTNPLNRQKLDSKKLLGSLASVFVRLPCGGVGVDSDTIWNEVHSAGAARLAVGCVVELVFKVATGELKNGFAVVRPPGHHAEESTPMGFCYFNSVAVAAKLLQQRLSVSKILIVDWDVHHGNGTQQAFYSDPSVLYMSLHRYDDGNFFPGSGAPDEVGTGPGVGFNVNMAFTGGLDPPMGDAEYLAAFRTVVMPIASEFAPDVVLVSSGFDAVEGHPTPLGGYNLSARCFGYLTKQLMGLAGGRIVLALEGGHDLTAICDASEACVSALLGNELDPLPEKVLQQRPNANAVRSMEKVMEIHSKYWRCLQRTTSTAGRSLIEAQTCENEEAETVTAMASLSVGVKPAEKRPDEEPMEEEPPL

Histone deacetylase = assay: Inhibition of HDAC in human HeLa cell nuclear extract using Boc-Lys(Ac)-AMC as substrate preincubated for 15 mins followed by substrate addition measured after 60 mins by fluorescence-based assay
Histone deacetylase 8 = target: T3, Histone deacetylase 8 (Homo sapiens, UniProt Q9BY41); assay: Inhibition of recombinant human HDAC8 using Boc-Lys(TFA)-AMC as substrate preincubated for 15 mins followed by substrate addition measured after 60 mins by fluorescence-based assay
T3 sequence (Q9BY41 whole entry): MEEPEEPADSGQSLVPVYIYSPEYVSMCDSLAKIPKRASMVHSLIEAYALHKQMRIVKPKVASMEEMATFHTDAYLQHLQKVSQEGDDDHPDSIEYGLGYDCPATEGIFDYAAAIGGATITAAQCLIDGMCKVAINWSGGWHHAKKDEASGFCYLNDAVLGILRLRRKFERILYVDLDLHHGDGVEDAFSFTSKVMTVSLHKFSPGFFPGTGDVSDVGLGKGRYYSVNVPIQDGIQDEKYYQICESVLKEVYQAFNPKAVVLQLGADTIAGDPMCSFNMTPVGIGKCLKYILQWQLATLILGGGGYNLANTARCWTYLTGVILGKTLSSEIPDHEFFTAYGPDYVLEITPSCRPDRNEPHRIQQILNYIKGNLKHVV

[14] = target: T4, Protein deacetylase HDAC6 (Homo sapiens, UniProt Q9UBN7); assay: Inhibition of recombinant human HDAC6 using Boc-Lys(Ac)-AMC as substrate preincubated for 15 mins followed by substrate addition measured after 60 mins by fluorescence-based assay
T4 sequence (Q9UBN7 whole entry): T2 sequence (whole entry)

Histone deacetylase 11 = target: T5, Histone deacetylase 11 (Homo sapiens, UniProt Q96DB2); assay: Inhibition of recombinant human HDAC11 using Boc-Lys(TFA)-AMC as substrate preincubated for 15 mins followed by substrate addition measured after 60 mins by fluorescence-based assay
T5 sequence (Q96DB2 whole entry): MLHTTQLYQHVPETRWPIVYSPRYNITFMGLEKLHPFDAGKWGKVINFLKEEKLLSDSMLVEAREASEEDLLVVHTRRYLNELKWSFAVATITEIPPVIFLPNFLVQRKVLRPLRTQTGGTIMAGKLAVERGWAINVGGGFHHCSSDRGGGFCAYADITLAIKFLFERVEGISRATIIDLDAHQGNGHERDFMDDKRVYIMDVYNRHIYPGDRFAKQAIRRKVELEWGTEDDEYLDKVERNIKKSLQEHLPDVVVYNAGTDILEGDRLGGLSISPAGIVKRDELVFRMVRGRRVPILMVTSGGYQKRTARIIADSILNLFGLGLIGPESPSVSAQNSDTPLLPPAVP

Structure (SMILES)	inhibition (Histone deacetylase 1 [3])	GI50 (cells [4]) [µM]	inhibition [5]	GI50 (A549) [µM]	GI50 at 96 h [7] [µM]	GI50 (cells [9]) [µM]	inhibition in vivo at 40 mg/kg [10] [%]	GI50 (cells [11]) [µM]	GI50 (MCF7) [µM]	GI50 (MDA-MB-231) [µM]	GI50 (HT-29; Homo sapiens, HT-29, 96 h) [µM]	also measured
O=C(CCCCCCC(=O)Nc1ccccc1)NO [VORINOSTAT]												Activity (Mus musculus [1]): Non-toxic; Activity (Mus musculus [2]): Non-toxic; GI50 (HT-29): 2.88 µM
O=C(NCCCCCCSSCCCCCCNC(=O)c1cc(-c2ccncc2)n[nH]1)c1cc(-c2ccncc2)n[nH]1	Dose-dependent effect	4.74	Dose-dependent effect	6.07	14.8	8.93	27	25.3	7.15	27.3	6.92	inhibition (HCT-116): Dose-dependent effect; Activity (Mus musculus [6]): Non-toxic; Activity (Mus musculus [8]): Non-toxic; inhibition in vivo at 80 mg/kg [12]: 48%
O=C(NCCCCCCSSCCCCCCNC(=O)c1cc(-c2cccnc2)n[nH]1)c1cc(-c2cccnc2)n[nH]1	Dose-dependent effect	1.25	Dose-dependent effect	5.31	13.5	3.03	28	3.6	3.79	10.3	5.29	
O=C(NCCCCCCS)c1cc(-c2ccncc2)n[nH]1	Dose-dependent effect	11	Dose-dependent effect	14.4	17.5	25.3		36.9	12.2	> 50	10.2	IC50 (Histone deacetylase 2): 0.072 µM; IC50 (Histone deacetylase 1 [13]): 0.012 µM; IC50 (Histone deacetylase 3): 0.011 µM; IC50 (Histone deacetylase 4): > 10 µM; IC50 (Histone deacetylase): 0.008 µM; IC50 (Histone deacetylase 8): > 10 µM; IC50 [14]: 0.018 µM; IC50 (Histone deacetylase 11): > 10 µM
